“Also recorded” adds a separate entry of the source.
Key:
Format in all cases: binding
ELIC-α1GABAAR [1] = biological target: T1, ELIC-α1GABAAR (Homo sapiens, UniProt P14867)
Description: (§1) One hundred microlitres of ELIC-α1GABAAR (0.3 μM) was transferred into a 50-μl window quartz cuvette maintained at 4°C, and NaI was added to the protein sample to a final concentration of 100 mM and incubated for 10 min. MQ290 was then added at a concentration of 3 μM for 3α-OH NS inhibition curves or 1 μM for 3β-OH NS inhibition curves and incubated for 30 min. One-microlitre aliquots of 3α-OH and 3β-OH NS from their corresponding stock solutions (prepared in Buffer A + 0.015% DDM) were added to achieve concentrations between 0.01 and 30 μM. The background emission spectra of ligands alone were obtained for each ligand concentration in the absence of protein and were subtracted from the protein-ligand emission spectra to yield background subtracted data. The MQ290 FRET spectra for different ligand concentrations were estimated using the method described above. The 370-nm intensities of the FRET spectra were plotted against ligand concentration and fitted to a four-parameter logistic curve to obtain IC50 data (GraphPad Software version 9.4.0, San Diego, CA). Ki values were calculated using the relationship: Ki=IC50/1+LT/Kd
where LT is the concentration of MQ290 and Kd was determined from the MQ290 binding curve.

ELIC-α1^W246LGABAAR = ELIC-α1^W246LGABAAR (Homo sapiens, UniProt P14867, W273L); assay: Inhibition of MQ290 FRET by NS in W246L receptors; details: 30 μM NS; MQ290 1 μM
Description: as §1

ELIC-α1GABAAR [2] = biological target: T1, ELIC-α1GABAAR; assay: KK200 photolabelling competition, middle-down MS; details: 3 μM KK200, 30 μM competitor
Description: The synthesis of the NS photolabelling reagent KK200 is detailed in previous reports ([W. W. L. Cheng et al., 2018]; [Jiang et al., 2016]). […] The samples were then irradiated in a quartz cuvette for 5 min, using a photoreactor emitting light at >320 nm ([Germann et al., 2021]). Sample preparation for tryptic digestion and analysis by LC–MS was performed as previously described ([Sugasawa et al., 2019]). Peptides were separated on a home-packed PLRP-S (Agilent, Santa Clara, CA, USA) column (10 cm × 75 μm, 300 Å) using a 135-min gradient from 10% to 90% acetonitrile and introduced to an Orbitrap-Elite mass spectrometer (Thermo Fisher Scientific, Waltham, MA, USA; RRID:SCR_020548) at 800 nl·min^−1 with a nanospray source. MS acquisition was set as an MS1 Orbitrap scan (resolution of 60,000) followed by top 20 MS2 Orbitrap scans (resolution of 15,000) using data-dependent acquisition and exclusion of singly charged precursors. Fragmentation was performed using high-energy dissociation with normalized energy of 35%. Analysis of data sets was performed using Xcalibur (Thermo Fisher Scientific, Waltham, MA, USA; RRID: SCR_014593) to manually search for TM1, TM2, TM3 or TM4 tryptic peptides with or without NS photolabelling modifications. Photolabelling efficiency was estimated by generating extracted chromatograms of unlabelled and labelled peptides, determining the area under the curve, and calculating the (area of labelled peptide/(area of unlabelled + area of labelled peptide). MS2 spectra of photolabelled TMD peptides were analysed by manual assignment of fragment ions with and without photolabelling modification.

T1 sequence (P14867 other isoform, or with tags, fused parts or gaps): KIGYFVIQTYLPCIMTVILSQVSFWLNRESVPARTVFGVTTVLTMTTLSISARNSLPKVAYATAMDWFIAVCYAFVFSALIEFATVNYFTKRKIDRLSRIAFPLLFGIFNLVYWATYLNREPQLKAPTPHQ
T1 sequence (P0C7B7 1-198, further chain): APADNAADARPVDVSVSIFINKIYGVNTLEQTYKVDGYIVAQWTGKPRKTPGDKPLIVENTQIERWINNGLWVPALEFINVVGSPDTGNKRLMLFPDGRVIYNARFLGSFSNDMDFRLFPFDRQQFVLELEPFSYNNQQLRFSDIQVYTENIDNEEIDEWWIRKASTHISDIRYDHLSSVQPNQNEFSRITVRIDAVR
Sequence of ELIC-α1^W246LGABAAR (P14867 other isoform, or with tags, fused parts or gaps W273L): as the sequence (P14867 other isoform, or with tags, fused parts or gaps) above, with W25L counted along it
Sequence of ELIC-α1^W246LGABAAR (P0C7B7 1-198, further chain): as the sequence (P0C7B7 1-198, further chain) above

Compound: CC(=O)[C@H]1CC[C@H]2[C@@H]3CC[C@H]4C[C@@H](O)CC[C@]4(C)[C@H]3CC[C@]12C [Epi-AlloP, epi-allopregnanolone]
- Hill slope (ELIC-α1GABAAR [1]; 3β-OH NS, MQ290 1 μM): −0.68 ± 0.45
- mechanism of inhibition of MQ290 binding (ELIC-α1GABAAR [1]; MQ290 binding curves with 3×Kd and 30 μM NS): allosteric mechanism of inhibition
- inhibition of remaining MQ290 FRET signal in W246L (ELIC-α1^W246LGABAAR): reduced by neither
- prevention of KK200 photolabelling of TM3 (Y309) (ELIC-α1GABAAR [2]): not significantly different than control; also recorded: did not
